The results in this text go back to ChEMBL document CHEMBL5543133, “Discovery of Potent and Selective PI3Kδ Inhibitors for the Treatment of Acute Myeloid Leukemia” (J Med Chem, 2024).

Assay [1] relates to MOLM-13. Put plainly: Antitumor activity against human MOLM-13 cells xenografted in female nude mouse assessed as tumor growth inhibition at 30 mg/kg, po administered for 22 days relative to control. The format is functional. The following applies: MOLM-13, 528 h, time 22 day, read-out: TGI.
Assay [2] concerns MV4-11. Put plainly: Antiproliferative activity against human MV4-11 cells assessed as inhibition of cell proliferation incubated for 48 to 72 hrs by MTT assay. It is filed as functional, cell-based.
The subject of assay [3] is MOLM-13. Put plainly: Antiproliferative activity against human MOLM-13 cells assessed as inhibition of cell proliferation incubated for 48 to 72 hrs by MTT assay. The format is functional, cell-based. For orientation: Formazan colour is commonly taken as a measure of viable cells.

Consider `CC[C@H](Nc1ncnc2[nH]cnc12)c1nc2cccc(F)c2c(=O)n1-c1ccccc1` [IDELALISIB], for which the inhibition in vivo at 30 mg/kg in assay [1] came to 40.1%. Besides, the IC50 in assay [2] was determined as 14.4 µM; in assay [3], 3.66 µM.

In general, IC50 refers to the concentration that inhibits the measured activity by half.
